{
  "source": "patent US20110088590A1",
  "about": "“METHOD FOR TREATING WOOD” (priority 2005, published 2011)",
  "origin": "cited, not measured here",
  "system": "honey bees and other beneficial insects, fish, aquatic insects, crayfish, and shrimp",
  "conditions": "for many species",
  "data": [
    {"smiles": "CC1(C)C(C=C(Cl)Cl)C1C(=O)OCc1cccc(Oc2ccccc2)c1", "note": "(stereo not shown) [Permethrin]", "values": [
      {"measurement": "lethal concentration", "result": "less than one"}
    ]}
  ]
}
